In the assay the test system is Male NSA mice. Briefly: In vivo determination of behavioral effects (motor activity / MK-801 hyperactivity), minimum effective dose. The conditions noted are these: p.o., lowest dose significantly different from vehicle control (distance traveled). As for the experimental part: Animals and Apparatus. Male NSA mice (Harlan; San Deigo, Calif.) were used as subjects. Mice weighed 20-30 g. Animals were housed 8/cage in the One Cage system (One Cage; Lab Products, Inc., Seaford, Del.) with bedding (⅛ inch Bed “O” Cob; Harlan Teklad, Madison, Wis.) in a room with controlled temperature 22±3° C. and a 12 hour light:dark cycle (lights on 6 am). Water and standard rodent chow (Harlan Teklad) were continuously available in the home cage. For testing, plastic locomotor activity cages (20×20×30 cm; AccuScan Instruments, Columbus, Ohio) were equipped with photocell beams for monitoring horizontal activity. Data were collected using Versamax computer software (AccuScan Instruments).
For determination of spontaneous activity, test compounds were administered alone (s.c. 10 min or p.o. 30 min before the session). For hyperactivity experiments, mice were injected with 0.3 mg/kg MK-801 i.p. 15 min presession (the peak dose for producing hyperactivity in an inverted-U dose-effect curve as determined in pilot experiments) in combination with vehicle or test compound. Motor activity data were collected during a 15 min session in a lit room. Mice had no prior exposure to the motor cages. Each dose or dose combination was tested in a separate group of mice (n=8).
Distance traveled (cm) was calculated and averaged across animals in a group. […]

Molecules are shown by their SMILES.

Regarding `CC(C)COc1ccc(CC(=O)N(Cc2ccc(F)cc2)C2CCN(CCCN3C(=O)OC[C@@H]3C(C)C)CC2)cc1.O=C(O)C(=O)O` [117NLS01, N-(4-Fluorobenzyl)-2-(4-isobutoxyphenyl)-N-{1-[3-(4-(S)-isopropyl-2-oxo-oxazolidin-3-yl)propyl]piperidin-4-yl}acetamide], the “MED in vivo po” value was found to be 1 mg/kg.

Values taken from patent US7538222B2, “N-substituted piperidine derivatives as serotonin receptor agents” (ACADIA Pharmaceuticals, Inc., priority 2002, dated 2009).
